Patent US10117871B2, “3-hydroxypyrimidine-2,4-dione-5-carboxamides as potent inhibitors of HIV” (Regents of the University of Minnesota, priority 2015, dated 2018)
Read-outs that look alike come from different tables or passages of the source.

Tests used:
[1] = test system: CEM-SS cells; experiment: Compound cytotoxicity (MTS) in the HIV cytoprotection assay; format: cell-based; details: for Cell viability %: 10 μM, CEM-SS cells; for CC50: Concentration resulting in 50% cell death
Procedure: (§1) The antiviral activity of newly synthesized analogues of chemotype 7 was evaluated against HIV-1IIIB in CEM-SS cells using an assay based on viral cytopathic effect (CPE). In this assay, the reduction of CPE was used to indicate the antiviral activity of a compound.
Briefly virus and cells were mixed in the presence of test compound and incubated for 6 days. […] Each assay plate contained cell control wells (cells only), virus control wells (cells plus virus), compound toxicity control wells (cells plus compound only), compound colorimetric control wells (compound only) as well as experimental wells (compound plus cells plus virus). […] Each assay included AZT as a positive control.

[2] = test system: HIV-1IIIB; experiment: HIV-1 cytoprotection (CPE reduction) antiviral assay; format: cell-based; details: for inhibition at 10 µM: read-out: CPE reduction %; for antiviral activity, in words: single concentration 10 μM, CPE assay
Procedure: as §1
Briefly virus and cells were mixed in the presence of test compound and incubated for 6 days. […] Each assay plate contained cell control wells (cells only), virus control wells (cells plus virus), compound toxicity control wells (cells plus compound only), compound colorimetric control wells (compound only) as well as experimental wells (compound plus cells plus virus). Cytoprotection and compound cytotoxicity were assessed by MTS (CellTiter® 96 Reagent, Promega, Madison Wis.) and the EC50 (concentration inhibiting virus replication by 50%), CC50 (concentration resulting in 50% cell death) and a calculated TI (therapeutic index CC50/EC50) were provided. Each assay included AZT as a positive control.

[3] = molecular target: T1, HIV-1 integrase (Human immunodeficiency virus type 1 group M subtype B, UniProt P04585); experiment: HIV-1 integrase strand transfer (INST) assay; format: biochemical
T1 construct: HIV integrase was expressed and purified as previously reported; made in house; host or cells: Escherichia coli
Procedure: HIV integrase was expressed and purified as previously reported.^43 Inhibition assays were performed using a modified protocol of a reported method.^43 Briefly, 2.1 μL of compound suspended in DMSO was placed in duplicate into a Black 96 well non-binding plate (coming 3991). Compounds were plated in duplicate to a final concentration of 0.13-100 μM. To each well of the plate 186.9 μL of reaction mixture without DNA substrate was added (10 mM HEPES pH 7.5, 10% glycerol w/v, 10 mM MnCl2, 1 mM DTT, 1 μM integrase). The enzyme was incubated with inhibitor for 10 min at 25° C. after which the reaction was initiated by the addition of 21 μL of 500 nM oligo (5′ biotin […] annealed with […] 3′ Cy5). Reactions were incubated at 37° C. for 30 min and then quenched by the addition of 5.2 μL 500 mM EDTA. Each reaction was moved (200 μL) to a MultiScreen HTS PCR plate (Millipore MSSLBPC10) containing 20 μL streptavidin agarose beads (Life Technologies S951) and incubated with shaking for 30 min. A vacuum manifold was used to remove the reaction mixture and the beads were similarly washed 3 times with wash buffer (0.05% SDS, 1 mM EDTA in PBS). The plates were further washed 3 times with 200 μL 50 mM NaOH to denature DNA not covalently linked to the biotin modification. For each denaturation step the plate was incubated with shaking at 25° C. for 5 min and the NaOH was removed by centrifugation at 1000 g for 1 min. The reaction products were eluted from the beads by the addition of 150 μL formamide. The plate was incubated at 25° C. for 10 min and read directly at 635/675 in a SpectraMax i3 plate reader (Molecular Devices). Expression and purification of the recombinant IN in Escherichia coli were performed as previously reported^39, 44 with addition of 10% glycerol to all buffers. Preparation of oligonucleotide substrates has been described.^45 Integrase reactions were performed in 10 μL with 400 nM of recombinant IN, 20 nM of 5′-end [^32P]-labeled oligonucleotide substrate and inhibitors at various concentrations. Solutions of 10% DMSO without inhibitors were used as controls. Reactions were incubated at 37° C. (60 minutes) in buffer containing 50 mM MOPS, pH 7.2, 7.5 mM MgCl2, and 14.3 mM 2-mercaptoethanol. Reactions were stopped by addition of 10 μL of loading dye (10 mM EDTA, 98% deionized formamide, 0.025% xylene cyanol and 0.025% bromophenol blue). Reactions were then subjected to electrophoresis in 20% polyacrylamide-7 M urea gels. Gels were dried and reaction products were visualized and quantitated with a Typhoon 8600 (GE Healthcare, Little Chalfont, Buckinghamshire, UK). Densitometric analyses were performed using ImageQuant from Molecular Dynamics Inc. The concentrations at which enzyme activity was reduced by 50% (IC50) were determined using “Prism” software (GraphPad Software, San Diego, Calif.) for nonlinear regression to fit dose-response data to logistic curve models.

[4] = Human immunodeficiency virus 1, 10 μM, HIV-1IIIB in CEM-SS cells
[5] = Human immunodeficiency virus 1, CEM-SS
[6] = Human immunodeficiency virus 1, summary of Table 2, read-out: EC50

`CCCNc1[nH]c(=O)n(O)c(=O)c1C(=O)NCc1cccc(Cl)c1F` [Compound 7-xxviii, N-(3-Chloro-2-fluorobenzyl)-1-(hydroxy)-1,2,3,6-tetrahydro-2,6-dioxo-4-(propylamino)pyrimidine-5-carboxamide] was tested, and the Cell viability % [1] was 48% and the inhibition at 10 µM [2, 4] was 33%.
`CC(C)(C)Nc1[nH]c(=O)n(O)c(=O)c1C(=O)NCc1ccccc1` [Compound 7-x, 4-(tert-Butylamino)-N-benzyl-1-(hydroxy)-1,2,3,6-tetrahydro-2,6-dioxopyrimidine-5-carboxamide] was tested, and the Cell viability % [1] was 91%, the inhibition at 10 µM [2, 4] was 98% and the IC50 ([3]; read-out: INST IC50) was 0.081 ± 0.015 µM.
Compound `CCCNc1[nH]c(=O)n(O)c(=O)c1C(=O)NCc1ccccc1` [Compound 7-vii, N-Benzyl-1-(hydroxy)-1,2,3,6-tetrahydro-2,6-dioxo-4-(propylamino)pyrimidine-5-carboxamide] has a Cell viability % [1] of 97%, an inhibition at 10 µM [2, 4] of 100% and an IC50 ([3]; read-out: INST IC50) of 0.066 ± 0.016 µM.
In the case of `CNc1[nH]c(=O)n(O)c(=O)c1C(=O)NCc1ccc(F)cc1` [Compound 7-xiii, N-(4-Fluorobenzyl)-1-(hydroxy)-1,2,3,6-tetrahydro-4-(methylamino)-2,6-dioxopyrimidine-5-carboxamide], the Cell viability % [1] is reported as 89%, the inhibition at 10 µM [2, 4] is reported as 100% and the IC50 ([3]; read-out: INST IC50) is reported as 0.11 ± 0.021 µM.
Compound `CCNc1[nH]c(=O)n(O)c(=O)c1C(=O)NCc1cc(F)ccc1Cl` [Compound 7-xxi, N-(2-Chloro-5-fluorobenzyl)-1-(hydroxy)-4-(ethylamino)-1,2,3,6-tetrahydro-2,6-dioxopyrimidine-5-carboxamide] has a Cell viability % [1] of 73%, an inhibition at 10 µM [2, 4] of 62% and an IC50 ([3]; read-out: INST IC50) of 0.095 ± 0.019 µM.
Compound `O=C(NCc1cccc(F)c1)c1c(Nc2ccc(-c3ccccc3)cc2)[nH]c(=O)n(O)c1=O` [Compound 7-iii, N-(3-Fluorobenzyl)-1-(hydroxy)-1,2,3,6-tetrahydro-2,6-dioxo-4-(biphenylamino)pyrimidine-5-carboxamide] has a Cell viability % [1] of 8.7%, an inhibition at 10 µM [2, 4] of 0% and an IC50 ([3]; read-out: INST IC50) of over 100 µM.
Work on `O=C(NCc1ccc(F)cc1)c1c(Nc2ccc(-c3ccccc3)cc2)[nH]c(=O)n(O)c1=O` [Compound 7-iv, N-(4-Fluorobenzyl)-1-(hydroxy)-1,2,3,6-tetrahydro-2,6-dioxo-4-(biphenylamino)pyrimidine-5-carboxamide] yielded a Cell viability % [1] of 9.1%, an inhibition at 10 µM [2, 4] of 0% and an IC50 ([3]; read-out: INST IC50) of over 100 µM.
With `CCNc1[nH]c(=O)n(O)c(=O)c1C(=O)NCCc1ccccc1` [Compound 7-xxvi, 1-(Hydroxy)-4-(ethylamino)-1,2,3,6-tetrahydro-2,6-dioxo-N-phenethylpyrimidine-5-carboxamide] the Cell viability % [1] was 87%, the inhibition at 10 µM [2, 4] was 99% and the “antiviral activity, in words” value [2] was “largely retained”. For the same compound, the IC50 ([3]; read-out: INST IC50) was 0.1 ± 0.03 µM.
`O=C(NCc1ccccc1)c1c(O)n(O)c(=O)[nH]c1=O` [Compound 16, N-Benzyl-1,6-dihydroxy-2,4-dioxo-1,2,3,4-tetrahydropyrimidine-5-carboxamide] was tested, and the IC50 ([3]; read-out: INST IC50) was 37 ± 21 µM.
In the case of `CCNc1[nH]c(=O)n(O)c(=O)c1C(=O)Nc1ccccc1` [Compound 7-xxv, 1-(Hydroxy)-4-(ethylamino)-1,2,3,6-tetrahydro-2,6-dioxo-N-phenylpyrimidine-5-carboxamide], the Cell viability % [1] is reported as 27%, the inhibition at 10 µM [2, 4] is reported as 11% and the “antiviral activity, in words” value [2] is reported as “complete loss of activity”. The IC50 ([3]; read-out: INST IC50) was 35 ± 17 µM.
`CCNc1[nH]c(=O)n(O)c(=O)c1C(=O)NCc1ccc(F)cc1F` [Compound 7-xviii, N-(2,4-Difluorobenzyl)-1-(hydroxy)-4-(ethylamino)-1,2,3,6-tetrahydro-2,6-dioxopyrimidine-5-carboxamide] gave a Cell viability % [1] of 87%, an inhibition at 10 µM [2, 4] of 92% and an IC50 ([3]; read-out: INST IC50) of 0.048 ± 0.007 µM.
For `CNc1[nH]c(=O)n(O)c(=O)c1C(=O)NCc1cccc(F)c1` [Compound 7-xii, N-(3-Fluorobenzyl)-1-(hydroxy)-1,2,3,6-tetrahydro-4-(methylamino)-2,6-dioxopyrimidine-5-carboxamide], the Cell viability % [1] was 95%, the inhibition at 10 µM [2, 4] was 100% and the IC50 ([3]; read-out: INST IC50) was 0.25 ± 0.048 µM.
Compound `O=C(NCc1ccccc1)c1c(Nc2ccccc2)[nH]c(=O)n(O)c1=O` [Compound 7-i, N-Benzyl-1-(hydroxy)-1,2,3,6-tetrahydro-2,6-dioxo-4-(phenylamino)pyrimidine-5-carboxamide] has a Cell viability % [1] of 21% and an inhibition at 10 µM [2, 5] of 0%.
`CCNc1[nH]c(=O)n(OCc2ccccc2)c(=O)c1C(=O)N(C)Cc1ccc(F)cc1` [Compound 15, 3-(Benzyloxy)-6-(ethylamino)-N-(4-fluorobenzyl)-N-methyl-2,4-dioxo-1,2,3,4-tetrahydropyrimidine-5-carboxamide] showed an IC50 ([3]; read-out: INST IC50) of 7 ± 3.3 µM.
In the case of `CCNc1[nH]c(=O)n(O)c(=O)c1C(=O)NCc1ccc(F)c(F)c1` [Compound 7-xx, N-(3,4-Difluorobenzyl)-1-(hydroxy)-4-(ethylamino)-1,2,3,6-tetrahydro-2,6-dioxopyrimidine-5-carboxamide], the Cell viability % [1] is reported as 100%, the CC50 [1] is reported as 21 µM and the EC50 ([2]; Human immunodeficiency virus 1) is reported as 0.049 µM. The inhibition at 10 µM [2, 5] was 100%, the EC50 [2, 6] was 0.015 to 0.061 µM and the IC50 ([3]; read-out: IC50 (ST)) was 0.021 to 0.077 µM. It also gave an IC50 ([3]; read-out: INST IC50) of 0.077 ± 0.011 µM.
`CC(C)Nc1[nH]c(=O)n(O)c(=O)c1C(=O)NCc1ccccc1` [Compound 7-viii, N-Benzyl-1-(hydroxy)-1,2,3,6-tetrahydro-4-(isopropylamino)-2,6-dioxopyrimidine-5-carboxamide] was tested, and the Cell viability % [1] was 17%, the “cytotoxicity, in words” value ([1]; single concentration 10 μM) was “cytotoxic” and the inhibition at 10 µM [2, 4] was 0%. The “antiviral activity, in words” value [2] was “inactive” and the IC50 ([3]; read-out: INST IC50) was 0.15 ± 0.034 µM.
`CCNc1[nH]c(=O)n(O)c(=O)c1C(=O)NCc1ccccc1` [Compound 7-vi, N-Benzyl-1-(hydroxy)-4-(ethylamino)-1,2,3,6-tetrahydro-2,6-dioxopyrimidine-5-carboxamide] was tested, and the Cell viability % [1] was 100%, the CC50 [1] was 23 µM and the EC50 ([2]; Human immunodeficiency virus 1) was 0.061 µM. The inhibition at 10 µM [2, 5] was 100%, the EC50 [2, 6] was 0.015 to 0.061 µM and the IC50 ([3]; read-out: IC50 (ST)) was 0.021 to 0.077 µM. The IC50 ([3]; read-out: INST IC50) was 0.033 ± 0.004 µM.
Compound `CNc1[nH]c(=O)n(O)c(=O)c1C(=O)NCc1ccccc1` [Compound 7-v, N-Benzyl-1-(hydroxy)-1,2,3,6-tetrahydro-4-(methylamino)-2,6 dioxopyrimidine-5-carboxamide] has a Cell viability % [1] of 98%, a CC50 [1] of 58 µM and an EC50 ([2]; Human immunodeficiency virus 1) of 0.83 µM. It also gave an inhibition at 10 µM [2, 4] of 100% and an IC50 ([3]; read-out: INST IC50) of 0.08 ± 0.007 µM.
With `O=C(NCc1ccc(F)cc1)c1c2n(c(=O)n(O)c1=O)CCCN2` [Compound 17, N-(4-Fluorobenzyl)-7-(hydroxy)-2,3,4,6,7,8-hexahydro-6,8-dioxo-1H-pyrimido[1,6-a]pyrimidine-9-carboxamide] the IC50 ([3]; read-out: INST IC50) was 0.43 ± 0.13 µM.
For `O=C(NCc1ccccc1)c1c(Nc2ccc(-c3ccccc3)cc2)[nH]c(=O)n(O)c1=O` [Compound 7-ii, N-Benzyl-1-(hydroxy)-1,2,3,6-tetrahydro-2,6-dioxo-4-(biphenylamino)pyrimidine-5-carboxamide], the Cell viability % [1] was 13% and the inhibition at 10 µM [2, 5] was 0%.
